In PMC4844702, “Selective inhibition of the kinase DYRK1A by targeting its folding process” (Nature Communications, 2016):

Columns and labels:
Assay in all cases: Kinase panel (Carna)
Type in all cases: biochemical
EPHB2 = molecular target: T1, EPHB2 (Homo sapiens, UniProt P29323)
T1 construct: purchased Carna Biosciences
Text: (§1) Detailed information on the assay conditions is available on the website of Carna Biosciences (http://www.carnabio.com).

PKACα = molecular target: T2, PKACα (Homo sapiens, UniProt P17612)
T2 construct: purchased Carna Biosciences

SYK = molecular target: T3, SYK (Homo sapiens, UniProt P43405)
T3 construct: purchased Carna Biosciences
Text: as §1

HGK = molecular target: T4, HGK (Homo sapiens, UniProt O95819)
T4 construct: purchased Carna Biosciences

SGK = molecular target: T5, SGK (Homo sapiens, UniProt O00141)
T5 construct: purchased Carna Biosciences

MLK1_Cascade = molecular target: T6, MLK1_Cascade (Homo sapiens, UniProt P80192)
T6 construct: purchased Carna Biosciences
T6 sequence (P80192 whole entry): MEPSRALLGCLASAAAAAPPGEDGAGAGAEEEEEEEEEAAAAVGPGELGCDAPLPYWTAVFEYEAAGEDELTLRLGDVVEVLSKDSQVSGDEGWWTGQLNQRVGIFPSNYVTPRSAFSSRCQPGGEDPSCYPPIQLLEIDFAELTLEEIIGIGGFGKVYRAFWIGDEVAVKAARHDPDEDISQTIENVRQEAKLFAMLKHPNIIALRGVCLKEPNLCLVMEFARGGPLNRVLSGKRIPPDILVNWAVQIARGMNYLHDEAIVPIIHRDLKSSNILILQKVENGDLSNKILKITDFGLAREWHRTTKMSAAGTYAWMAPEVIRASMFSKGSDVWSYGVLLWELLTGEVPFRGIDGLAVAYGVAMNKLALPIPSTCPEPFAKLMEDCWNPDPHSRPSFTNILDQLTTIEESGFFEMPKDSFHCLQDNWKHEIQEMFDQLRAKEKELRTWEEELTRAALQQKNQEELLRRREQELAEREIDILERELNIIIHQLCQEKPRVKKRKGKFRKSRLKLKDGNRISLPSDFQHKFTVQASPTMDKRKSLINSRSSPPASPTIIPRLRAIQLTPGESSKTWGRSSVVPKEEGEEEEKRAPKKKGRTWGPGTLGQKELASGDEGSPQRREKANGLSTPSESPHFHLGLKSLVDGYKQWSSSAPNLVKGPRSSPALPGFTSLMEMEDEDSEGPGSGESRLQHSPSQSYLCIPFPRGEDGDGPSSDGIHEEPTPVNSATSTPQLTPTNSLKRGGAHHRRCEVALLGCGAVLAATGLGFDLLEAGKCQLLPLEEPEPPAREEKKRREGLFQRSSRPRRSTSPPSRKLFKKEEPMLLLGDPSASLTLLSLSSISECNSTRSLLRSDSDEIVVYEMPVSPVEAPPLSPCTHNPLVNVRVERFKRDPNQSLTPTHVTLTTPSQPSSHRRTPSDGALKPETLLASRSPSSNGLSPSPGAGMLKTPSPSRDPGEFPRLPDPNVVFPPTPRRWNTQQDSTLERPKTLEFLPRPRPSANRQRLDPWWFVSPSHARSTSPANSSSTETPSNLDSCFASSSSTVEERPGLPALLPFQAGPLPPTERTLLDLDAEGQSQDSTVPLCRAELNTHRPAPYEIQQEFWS
Text: as §1

NEK7 = molecular target: T7, NEK7 (Homo sapiens, UniProt Q8TDX7)
T7 construct: purchased Carna Biosciences
T7 sequence (Q8TDX7 whole entry): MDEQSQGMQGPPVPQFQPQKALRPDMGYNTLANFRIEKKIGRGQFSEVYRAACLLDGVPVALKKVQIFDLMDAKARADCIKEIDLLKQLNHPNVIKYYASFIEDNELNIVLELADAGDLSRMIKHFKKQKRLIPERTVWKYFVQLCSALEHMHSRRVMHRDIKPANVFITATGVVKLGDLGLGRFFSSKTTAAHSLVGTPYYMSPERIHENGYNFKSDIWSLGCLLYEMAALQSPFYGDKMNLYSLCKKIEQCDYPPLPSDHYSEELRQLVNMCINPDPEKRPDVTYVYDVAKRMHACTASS

MSK2 = molecular target: T8, MSK2 (Homo sapiens, UniProt O75676)
T8 construct: purchased Carna Biosciences
Text: as §1

SGK3 = molecular target: T9, SGK3 (Homo sapiens, UniProt Q96BR1)
T9 construct: purchased Carna Biosciences
T9 sequence (Q96BR1 whole entry): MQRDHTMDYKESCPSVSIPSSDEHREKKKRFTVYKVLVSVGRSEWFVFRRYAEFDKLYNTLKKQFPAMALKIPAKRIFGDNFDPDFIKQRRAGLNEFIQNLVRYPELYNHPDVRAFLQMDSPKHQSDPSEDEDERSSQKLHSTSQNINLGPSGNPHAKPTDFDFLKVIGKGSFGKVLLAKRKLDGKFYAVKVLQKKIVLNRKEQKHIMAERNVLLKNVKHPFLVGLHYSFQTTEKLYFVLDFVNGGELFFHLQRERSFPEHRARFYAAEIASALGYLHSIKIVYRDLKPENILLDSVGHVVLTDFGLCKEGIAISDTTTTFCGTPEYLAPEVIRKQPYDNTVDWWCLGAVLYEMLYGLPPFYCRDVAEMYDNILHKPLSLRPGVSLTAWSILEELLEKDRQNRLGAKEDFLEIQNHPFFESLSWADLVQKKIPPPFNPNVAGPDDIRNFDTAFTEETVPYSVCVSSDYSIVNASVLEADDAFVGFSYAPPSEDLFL

PKCη = molecular target: T10, PKCη (Homo sapiens, UniProt P24723)
T10 construct: purchased Carna Biosciences
Text: as §1

KDR = molecular target: T11, KDR (Homo sapiens, UniProt P35968)
T11 construct: purchased Carna Biosciences
Text: as §1

TYRO3 = molecular target: T12, TYRO3 (Homo sapiens, UniProt Q06418)
T12 construct: purchased Carna Biosciences
Text: as §1

SRC = molecular target: T13, SRC (Homo sapiens, UniProt P12931)
T13 construct: purchased Carna Biosciences
Text: as §1

IRR = molecular target: T14, IRR (Homo sapiens, UniProt P14616)
T14 construct: purchased Carna Biosciences
Text: as §1

p38δ = molecular target: T15, p38δ (Homo sapiens, UniProt O15264)
T15 construct: purchased Carna Biosciences
Text: as §1

NuaK1 = molecular target: T16, NuaK1 (Homo sapiens, UniProt O60285)
T16 construct: purchased Carna Biosciences

SPHK1 = molecular target: T17, SPHK1 (Homo sapiens, UniProt Q9NYA1)
T17 construct: purchased Carna Biosciences
Text: as §1

LATS2 = molecular target: T18, LATS2 (Homo sapiens, UniProt Q9NRM7)
T18 construct: purchased Carna Biosciences

PAK1 = molecular target: T19, PAK1 (Homo sapiens, UniProt Q13153)
T19 construct: purchased Carna Biosciences
Text: as §1

PBK = molecular target: T20, PBK (Homo sapiens, UniProt Q96KB5)
T20 construct: purchased Carna Biosciences
T20 sequence (Q96KB5 whole entry): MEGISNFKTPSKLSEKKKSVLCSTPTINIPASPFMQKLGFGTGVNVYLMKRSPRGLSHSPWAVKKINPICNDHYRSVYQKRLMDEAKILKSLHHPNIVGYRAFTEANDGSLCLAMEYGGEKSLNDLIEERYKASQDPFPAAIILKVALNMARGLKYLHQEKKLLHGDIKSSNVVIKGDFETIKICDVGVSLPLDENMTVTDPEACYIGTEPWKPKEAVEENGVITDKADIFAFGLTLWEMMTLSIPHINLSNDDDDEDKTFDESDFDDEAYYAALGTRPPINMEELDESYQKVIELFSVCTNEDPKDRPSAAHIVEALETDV
Text: as §1

CaMK2δ = molecular target: T21, CaMK2δ (Homo sapiens, UniProt Q13557)
T21 construct: purchased Carna Biosciences

AurA/TPX2 = molecular target: T22, AurA/TPX2 (Homo sapiens, UniProt O14965)
T22 construct: purchased Carna Biosciences
T22 sequence (O14965 whole entry): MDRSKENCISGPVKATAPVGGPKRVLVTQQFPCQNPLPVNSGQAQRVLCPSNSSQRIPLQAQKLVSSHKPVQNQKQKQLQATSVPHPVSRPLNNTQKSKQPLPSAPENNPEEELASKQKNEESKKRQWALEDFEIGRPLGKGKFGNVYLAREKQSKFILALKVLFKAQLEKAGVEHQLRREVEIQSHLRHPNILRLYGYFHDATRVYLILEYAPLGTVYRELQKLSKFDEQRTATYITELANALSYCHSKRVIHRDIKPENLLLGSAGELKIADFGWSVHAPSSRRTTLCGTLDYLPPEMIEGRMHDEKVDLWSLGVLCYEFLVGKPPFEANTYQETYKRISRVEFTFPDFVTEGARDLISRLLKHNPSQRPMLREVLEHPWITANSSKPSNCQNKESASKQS
T22 sequence (Q9ULW0 1-43 partner limits assumed): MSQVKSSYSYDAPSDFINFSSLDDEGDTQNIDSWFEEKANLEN
Text: as §1

AKT3 = molecular target: T23, AKT3 (Homo sapiens, UniProt Q9Y243)
T23 construct: purchased Carna Biosciences
Text: as §1

ALK = molecular target: T24, ALK (Homo sapiens, UniProt Q9UM73)
T24 construct: purchased Carna Biosciences
Text: as §1

BMX = molecular target: T25, BMX (Homo sapiens, UniProt P51813)
T25 construct: purchased Carna Biosciences
Text: as §1

p38β = molecular target: T26, p38β (Homo sapiens, UniProt Q15759)
T26 construct: purchased Carna Biosciences
Text: as §1

PKCθ = molecular target: T27, PKCθ (Homo sapiens, UniProt Q04759)
T27 construct: purchased Carna Biosciences
Text: as §1

HIPK1 = molecular target: T28, HIPK1 (Homo sapiens, UniProt Q86Z02)
T28 construct: purchased Carna Biosciences
Text: as §1

CK1α = molecular target: T29, CK1α (Homo sapiens, UniProt P48729)
T29 construct: purchased Carna Biosciences

Erk5 = molecular target: T30, Erk5 (Homo sapiens, UniProt Q13164)
T30 construct: purchased Carna Biosciences

KIT = molecular target: T31, KIT (Homo sapiens, UniProt P10721)
T31 construct: purchased Carna Biosciences
Text: as §1

ROS = molecular target: T32, ROS (Homo sapiens, UniProt P08922)
T32 construct: purchased Carna Biosciences
Text: as §1

PKACβ = molecular target: T33, PKACβ (Homo sapiens, UniProt P22694)
T33 construct: purchased Carna Biosciences

HCK = molecular target: T34, HCK (Homo sapiens, UniProt P08631)
T34 construct: purchased Carna Biosciences
Text: as §1

DCAMKL2 = molecular target: T35, DCAMKL2 (Homo sapiens, UniProt Q8N568)
T35 construct: purchased Carna Biosciences
Text: as §1

WNK1 = molecular target: T36, WNK1 (Homo sapiens, UniProt Q9H4A3)
T36 construct: purchased Carna Biosciences
T36 sequence (Q9H4A3 whole entry): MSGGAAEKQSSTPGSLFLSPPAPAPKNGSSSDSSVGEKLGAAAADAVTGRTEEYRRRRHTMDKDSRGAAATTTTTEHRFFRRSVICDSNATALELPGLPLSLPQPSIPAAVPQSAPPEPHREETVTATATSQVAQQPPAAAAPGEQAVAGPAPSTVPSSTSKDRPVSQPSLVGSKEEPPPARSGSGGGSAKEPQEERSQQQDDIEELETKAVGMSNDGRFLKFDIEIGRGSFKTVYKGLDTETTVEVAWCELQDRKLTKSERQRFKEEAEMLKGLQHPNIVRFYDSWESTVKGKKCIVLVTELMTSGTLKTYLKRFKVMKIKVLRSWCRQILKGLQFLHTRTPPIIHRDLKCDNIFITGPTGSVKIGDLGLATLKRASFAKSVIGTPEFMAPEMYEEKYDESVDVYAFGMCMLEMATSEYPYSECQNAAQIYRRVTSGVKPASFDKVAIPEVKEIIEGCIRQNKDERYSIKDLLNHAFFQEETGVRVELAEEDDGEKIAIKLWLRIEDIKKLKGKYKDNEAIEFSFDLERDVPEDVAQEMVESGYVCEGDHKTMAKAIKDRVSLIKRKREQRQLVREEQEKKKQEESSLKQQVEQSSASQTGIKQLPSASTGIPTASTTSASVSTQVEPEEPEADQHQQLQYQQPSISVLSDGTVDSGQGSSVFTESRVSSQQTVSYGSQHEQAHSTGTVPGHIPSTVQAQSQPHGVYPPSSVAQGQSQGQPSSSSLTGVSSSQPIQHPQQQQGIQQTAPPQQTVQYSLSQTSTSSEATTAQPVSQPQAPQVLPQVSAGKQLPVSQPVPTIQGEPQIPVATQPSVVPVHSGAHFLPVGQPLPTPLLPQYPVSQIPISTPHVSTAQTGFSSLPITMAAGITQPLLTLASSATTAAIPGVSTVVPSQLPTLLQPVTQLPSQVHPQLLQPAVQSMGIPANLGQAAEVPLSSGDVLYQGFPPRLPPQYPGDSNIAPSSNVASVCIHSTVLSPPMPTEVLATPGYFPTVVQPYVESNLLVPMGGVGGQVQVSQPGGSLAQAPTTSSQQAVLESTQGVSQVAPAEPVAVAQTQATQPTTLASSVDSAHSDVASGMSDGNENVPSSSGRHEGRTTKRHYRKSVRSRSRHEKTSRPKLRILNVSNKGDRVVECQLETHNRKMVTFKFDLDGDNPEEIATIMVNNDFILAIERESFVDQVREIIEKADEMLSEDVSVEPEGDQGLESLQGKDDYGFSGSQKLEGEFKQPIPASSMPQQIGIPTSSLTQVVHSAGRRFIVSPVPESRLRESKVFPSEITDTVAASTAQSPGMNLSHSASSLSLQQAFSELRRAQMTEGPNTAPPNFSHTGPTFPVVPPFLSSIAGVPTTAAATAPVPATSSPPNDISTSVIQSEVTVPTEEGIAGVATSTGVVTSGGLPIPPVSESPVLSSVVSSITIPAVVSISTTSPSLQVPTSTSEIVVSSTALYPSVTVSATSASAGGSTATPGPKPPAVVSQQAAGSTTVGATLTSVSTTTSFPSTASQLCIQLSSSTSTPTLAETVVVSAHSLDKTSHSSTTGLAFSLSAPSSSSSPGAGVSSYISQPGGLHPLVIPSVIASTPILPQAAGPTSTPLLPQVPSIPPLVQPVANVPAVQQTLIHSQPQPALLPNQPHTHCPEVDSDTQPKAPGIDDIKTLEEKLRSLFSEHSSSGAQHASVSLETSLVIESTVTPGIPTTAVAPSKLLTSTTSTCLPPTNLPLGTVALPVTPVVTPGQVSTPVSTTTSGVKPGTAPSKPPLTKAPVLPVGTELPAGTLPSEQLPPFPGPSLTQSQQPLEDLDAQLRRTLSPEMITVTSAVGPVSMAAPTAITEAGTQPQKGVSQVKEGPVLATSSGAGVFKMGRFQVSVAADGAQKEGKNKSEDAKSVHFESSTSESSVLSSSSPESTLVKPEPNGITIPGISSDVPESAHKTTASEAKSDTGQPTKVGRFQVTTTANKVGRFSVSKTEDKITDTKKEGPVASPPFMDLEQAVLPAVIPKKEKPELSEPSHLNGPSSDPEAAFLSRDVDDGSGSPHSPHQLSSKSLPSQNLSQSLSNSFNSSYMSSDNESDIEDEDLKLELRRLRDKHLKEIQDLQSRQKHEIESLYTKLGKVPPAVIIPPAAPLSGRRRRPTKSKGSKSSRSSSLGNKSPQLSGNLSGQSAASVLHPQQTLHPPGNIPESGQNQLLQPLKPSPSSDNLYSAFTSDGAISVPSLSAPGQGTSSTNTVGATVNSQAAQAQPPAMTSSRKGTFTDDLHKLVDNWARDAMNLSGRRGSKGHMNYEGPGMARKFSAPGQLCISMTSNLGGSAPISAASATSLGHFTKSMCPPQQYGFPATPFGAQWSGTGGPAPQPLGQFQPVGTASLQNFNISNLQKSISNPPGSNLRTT
Text: as §1

NDR2 = molecular target: T37, NDR2 (Homo sapiens, UniProt Q9Y2H1)
T37 construct: purchased Carna Biosciences
Text: as §1

EPHA3 = molecular target: T38, EPHA3 (Homo sapiens, UniProt P29320)
T38 construct: purchased Carna Biosciences

ITK = molecular target: T39, ITK (Homo sapiens, UniProt Q08881)
T39 construct: purchased Carna Biosciences
Text: as §1

MRCKβ = molecular target: T40, MRCKβ (Homo sapiens, UniProt Q9Y5S2)
T40 construct: purchased Carna Biosciences

EPHB3 = molecular target: T41, EPHB3 (Homo sapiens, UniProt P54753)
T41 construct: purchased Carna Biosciences
Text: as §1

PASK = molecular target: T42, PASK (Homo sapiens, UniProt Q96RG2)
T42 construct: purchased Carna Biosciences
Text: as §1

CRIK = molecular target: T43, CRIK (Homo sapiens, UniProt O14578)
T43 construct: purchased Carna Biosciences

JAK2 = molecular target: T44, JAK2 (Homo sapiens, UniProt O60674)
T44 construct: purchased Carna Biosciences
Text: as §1

IGF1R = molecular target: T45, IGF1R (Homo sapiens, UniProt P08069)
T45 construct: purchased Carna Biosciences
Text: as §1

COc1ccc(/C=C2\SC(=S)NC2=O)cc1C#C[Si](C)(C)C [FINDY]
inhibition at 10 µM (EPHB2): 10.1%
inhibition at 10 µM (PKACα): 64.7%
inhibition at 10 µM (SYK): 72.8%
inhibition at 10 µM (HGK): 13.4%
inhibition at 10 µM (SGK): 27.8%
inhibition at 10 µM (MLK1_Cascade): 48.7%
inhibition at 10 µM (NEK7): -12.3%
inhibition at 10 µM (MSK2): 20.8%
inhibition at 10 µM (SGK3): 21.7%
inhibition at 10 µM (PKCη): -12.7%
inhibition at 10 µM (KDR): 1.6%
inhibition at 10 µM (TYRO3): 2.9%
inhibition at 10 µM (SRC): 5.6%
inhibition at 10 µM (IRR): 3%
inhibition at 10 µM (p38δ): 11.9%
inhibition at 10 µM (NuaK1): -26.4%
inhibition at 10 µM (SPHK1): 51.2%
inhibition at 10 µM (LATS2): 1.2%
inhibition at 10 µM (PAK1): -0.2%
inhibition at 10 µM (PBK): 14.6%
inhibition at 10 µM (CaMK2δ): -4%
inhibition at 10 µM (AurA/TPX2): 25.1%
inhibition at 10 µM (AKT3): 18.9%
inhibition at 10 µM (ALK): -4.3%
inhibition at 10 µM (BMX): 10.5%
inhibition at 10 µM (p38β): 11.2%
inhibition at 10 µM (PKCθ): 6.5%
inhibition at 10 µM (HIPK1): 11.8%
inhibition at 10 µM (CK1α): 6.1%
inhibition at 10 µM (Erk5): -4%
inhibition at 10 µM (KIT): 2.9%
inhibition at 10 µM (ROS): 0.3%
inhibition at 10 µM (PKACβ): 65.3%
inhibition at 10 µM (HCK): 35.3%
inhibition at 10 µM (DCAMKL2): -3.8%
inhibition at 10 µM (WNK1): 12.6%
inhibition at 10 µM (NDR2): 8.1%
inhibition at 10 µM (EPHA3): 20.8%
inhibition at 10 µM (ITK): 1.2%
inhibition at 10 µM (MRCKβ): 0.1%
inhibition at 10 µM (EPHB3): 22.2%
inhibition at 10 µM (PASK): 11.9%
inhibition at 10 µM (CRIK): 1.9%
inhibition at 10 µM (JAK2): 7.1%
inhibition at 10 µM (IGF1R): 2.4%
